Data: patent US8273761B2, “Tricyclic compound and medical use thereof” (Takeda Pharmaceutical Company Limited, priority 2006, dated 2012)

What was measured:
[1] = target: T1, human melatonin 2 receptors (human MT2 receptors) (Homo sapiens, UniProt P49286); assay: Melatonin receptor binding inhibitory test (MT2); conditions: 2-[125I] Iodomelatonin 1 nM solution, membrane fraction of CHO-hMT2 cells, 25° C. for 2.5 hr
T1 construct: expressed in transfected cells
T1 sequence (P49286 1-362): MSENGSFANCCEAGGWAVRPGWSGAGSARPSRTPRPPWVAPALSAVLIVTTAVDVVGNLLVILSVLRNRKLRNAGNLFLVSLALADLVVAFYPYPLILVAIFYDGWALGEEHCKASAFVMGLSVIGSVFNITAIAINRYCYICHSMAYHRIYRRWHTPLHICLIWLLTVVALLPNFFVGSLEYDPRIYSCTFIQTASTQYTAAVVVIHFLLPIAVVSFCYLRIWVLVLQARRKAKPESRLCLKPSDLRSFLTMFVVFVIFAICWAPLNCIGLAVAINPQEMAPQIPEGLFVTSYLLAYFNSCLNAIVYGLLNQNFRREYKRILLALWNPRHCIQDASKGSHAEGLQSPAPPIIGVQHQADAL
Experimental: Melatonin Receptor Binding Inhibitory Test (2) Preparation of CHO-hMT2 Cells Expressing Human Melatonin 2 Receptors A cDNA fragment (SEQ ID NO: 2) encoding full-length of human melatonin 2 receptors (human MT2 receptors) was incorporated into expression vector pCMV-Script (Stratagene, #212220) to give the plasmid that was pCMV-human MT2 receptors expression vector for animal cell expression. CHO-K1 cells (ATCC, #CCL-61) were plated at the concentration of 1.5×10^5 cells/cm^2 in a 6 well plate (ASAHI TECHNO GLASS), and cultured under the conditions of 37° C., 5% CO2 for 24 hr. For gene transfection, solution obtained by blending pCMV-human MT2 receptors expression vector (1.9 μg), Lipofectamine Transfection Reagent (Invitrogen, #18324-012) (11.3 μL) and Minimum Essential Medium Eagle (MEM) medium (Sigma, M8042) (93.8 μL), and reacting at room temperature for 20 min was added to the cells per one well. The transfected cells were cultured in MEM medium containing 10% FBS (Life Technology) and 300 μg/mL Geneticin (GIBCO, #10131), and the cell line that stably expressed the plasmid gene was selected. By a receptor binding assay using 2-[^125I] […] (3) Preparation of Cellular Membrane Fraction of CHO Cell (CHO-hMelR7 and CHO-hMT2) Stably Expressing Human MT1 and MT2 Receptors CHO-hMelR7 and CHO-hMT2 cells were plated using Cellfactory (Nunc, #170009) under the conditions of 1×10^8 cells/2000 mL/flask. The cells were grown to confluent, and recovered by the following method. As the medium for CHO-hMelR7 and CHO-hMT2, MEM α containing 10% FBS and penicillin/streptomycin was used. 300 ng/mL of geneticin was added to the medium for CHO-hMT2. The medium was discarded, cells were washed twice with 200 mL of EDTA/PBS(-), 200 mL of EDTA/PBS(-) was further added, and the cells were stood still at room temperature for 20 min until they were released. The cells were recovered in four 50 mL tubes (Becton Dickinson, #352070), and centrifuged at 1,500 rpm for 10 min at 4° C. using a low speed cooling centrifuge (Hitachi, CF7D2). The supernatant was discarded, the pellets in the four tubes were suspended in 10 mL of PBS(-), and combined in one tube (Becton Dickinson, #352070). The mixture was further centrifuged at 1,500 rpm for 10 min at 4° C., and the obtained pellets were suspended in 20 mL of ice-cooled homogenizing buffer [10 mM NaHCO3, 5 mM EDTA, Protease inhibitor Complete (Roche), pH 7.4]. The cell suspension was homogenized 3 times using a polytron homogenizer at 20,000 rpm for 30 sec. The obtained homogenate was centrifuged (2,000 rpm, 10 min, 4° C.) using a low speed cooling centrifuge. The supernatant was recovered in an ultracentrifugation tube and ultracentrifuged (40,000 rpm, 60 min, 4° C.) using an ultracentrifuge (Beckman, […]). To the obtained pellets was added a suspending buffer [50 mM Tris-HCl, 1 mM EDTA, Protease inhibitor Complete (Roche), pH 7.4], and the pellets were suspended by pipetting. The protein concentration of this suspension was measured, diluted to 2 mg/mL to give cellular membrane fractions of CHO-hMelR7 and CHO-hMT2 cells. […] Protein was quantified using BCA protein assay kit (Pierce) with BSA as the standard. (4) Preparation of Membrane Fraction Suspension Immediately before use, the membrane fractions of CHO-hMelR7 and CHO-hMT2 cells of the above-mentioned (3) were diluted 20-fold with assay buffer (50 mM Tris-HCl, pH 7.7). (5) Preparation of 2-[^125I] […] (6) Binding Reaction The assay buffer (80 μL) of the above-mentioned (4) was added to each well of a 96-well plate (type 3363, Corning). […] (7) Measurement Using a cell harvester (PerkinElmer), the binding reaction mixture in each well of the 96-well plate was transferred to a treated (immersed in 50 mM Tris, pH 7.7 in advance) filter plate (UniFilter GF/C, PerkinElmer) and filtered.

Compound | IC50 [1] [nM] | melting point [°C]
CC(=O)NCCC1CCc2cnc3c(c21)CCO3 (single isomer, unassigned) [Example 20, optically active N-[2-(1,6,7,8-tetrahydro-2H-cyclopenta[d]furo[2,3-b]pyridin-8-yl)ethyl]acetamide] | ≤ 100 | 
CCC(=O)NCCC1CCc2cnc3c(c21)CCO3 (single isomer, unassigned) [Example 23, optically active N-[2-(1,6,7,8-tetrahydro-2H-cyclopenta[d]furo[2,3-b]pyridin-8-yl)ethyl]propanamide] | ≤ 100 | 
CCC(=O)NCCc1c(-c2ccccc2)nn2ccc3occc3c12 [Example 2, N-[2-(2-phenylfuro[3,2-c]pyrazolo[1,5-a]pyridin-1-yl)ethyl]propanamide] | ≤ 100 | 161 to 163
CC(=O)NCCc1cnn2ccc3c(c12)CCO3 [Example 3, N-[2-(8,9-dihydrofuro[3,2-c]pyrazolo[1,5-a]pyridin-1-yl)ethyl]acetamide] | ≤ 100 | 174 to 175
CCC(=O)NCCc1cnn2ccc3c(c12)CCO3 [Example 4, N-[2-(8,9-dihydrofuro[3,2-c]pyrazolo[1,5-a]pyridin-1-yl)ethyl]propanamide] | ≤ 100 | 96 to 97
CCCC(=O)NCCc1cnn2ccc3c(c12)CCO3 [Example 5, N-[2-(8,9-dihydrofuro[3,2-c]pyrazolo[1,5-a]pyridin-1-yl)ethyl]butanamide] | ≤ 100 | 58 to 59
CCC(=O)NCCc1c(-c2ccccc2)nn2ccc3c(c12)CCO3 [Example 8, N-[2-(2-phenyl-8,9-dihydrofuro[3,2-c]pyrazolo[1,5-a]pyridin-1-yl)ethyl]propanamide] | ≤ 100 | 169 to 170
CC(=O)NCCc1c(-c2ccc(F)cc2)nn2ccc3c(c12)CCO3 [Example 15, N-{2-[2-(4-fluorophenyl)-8,9-dihydrofuro[3,2-c]pyrazolo[1,5-a]pyridin-1-yl]ethyl}acetamide] | ≤ 100 | 160 to 162
CCC(=O)NCCc1c(-c2ccc(F)cc2)nn2ccc3c(c12)CCO3 [Example 16, N-{2-[2-(4-fluorophenyl)-8,9-dihydrofuro[3,2-c]pyrazolo[1,5-a]pyridin-1-yl]ethyl}propanamide] | ≤ 100 | 170 to 171
CC(=O)NCCc1c(-c2ccccc2)cn2ccc3c(c12)CCO3 [Example 17, N-[2-(8-phenyl-1,2-dihydrofuro[2,3-g]indolizin-9-yl)ethyl]acetamide] | ≤ 100 | 
CCC(=O)NCCC1CCc2cnc3c(c21)CCO3 (stereo not shown) [Example 22, N-[2-(1,6,7,8-tetrahydro-2H-cyclopenta[d]furo[2,3-b]pyridin-8-yl)ethyl]propanamide] | ≤ 100 | 
CCCC(=O)NCCC1CCc2cnc3c(c21)CCO3 (stereo not shown) [Example 25, N-[2-(1,6,7,8-tetrahydro-2H-cyclopenta[d]furo[2,3-b]pyridin-8-yl)ethyl]butanamide] | ≤ 100 | 
CCC(=O)NCCC1=CCc2cnc3c(c21)CCO3 [Example 29, N-[2-(1,6-dihydro-2H-cyclopenta[d]furo[2,3-b]pyridin-8-yl)ethyl]propanamide] | ≤ 100 | 111 to 112
CC(=O)NCCC1=C(C(C)C)Cc2cnc3c(c21)CCO3 [Example 30, N-[2-(7-isopropyl-1,6-dihydro-2H-cyclopenta[d]furo[2,3-b]pyridin-8-yl)ethyl]acetamide] | ≤ 100 | 164 to 166
CCC(=O)NCCC1=C(C(C)C)Cc2cnc3c(c21)CCO3 [Example 31, N-[2-(7-isopropyl-1,6-dihydro-2H-cyclopenta[d]furo[2,3-b]pyridin-8-yl)ethyl]propanamide] | ≤ 100 | 168 to 170
CCc1nn2ccc3c(c2c1C(C)CNC(C)=O)CCO3 (stereo not shown) [Example 37, N-[2-(2-ethyl-8,9-dihydrofuro[3,2-c]pyrazolo[1,5-a]pyridin-1-yl)propyl]acetamide] | ≤ 100 | 151 to 153
CCC(=O)NCC(C)c1c(CC)nn2ccc3c(c12)CCO3 (stereo not shown) [Example 38, N-[2-(2-ethyl-8,9-dihydrofuro[3,2-c]pyrazolo[1,5-a]pyridin-1-yl)propyl]propanamide] | ≤ 100 | 173 to 175
CCc1nn2ccc3oc(C)cc3c2c1CCNC(C)=O [Example 39, N-[2-(2-ethyl-8-methylfuro[3,2-c]pyrazolo[1,5-a]pyridin-1-yl)ethyl]acetamide] | ≤ 100 | 128 to 129
